ChEMBL document CHEMBL4145551, “Mitochondria-targeting indolizino[3,2-c]quinolines as novel class of photosensitizers for photodynamic anticancer activity” (Eur J Med Chem, 2018)
Activity calls are given as the source filed them. The calls are words filed in the database; no cut-off is given here.

Assays:
Calf thymus DNA = assay: Binding affinity to calf thymus DNA assessed as red shift in absorption maxima; format: nucleic-acid assay; details: Bos taurus
A549 = assay: Photocytotoxicity against human A549 cells assessed as reduction in cell viability preincubated for 1 hr followed blue LED light irradiation for 10 mins and measured after 24 hrs by MTT assay; format: functional, cell-based
MCF7 [1] = assay: Photocytotoxicity against human MCF7 cells assessed as reduction in cell viability preincubated for 1 hr followed blue LED light irradiation for 5 mins and measured after 24 hrs by MTT assay; format: functional, cell-based
[2] = Dark toxicity in human MCF7 cells assessed as reduction in cell viability up to 10 uM measured after 24 hrs by MTT assay; format: cell-based; details: mcf7, 24 h
[3] = Dark toxicity in human HeLa cells assessed as reduction in cell viability up to 10 uM measured after 24 hrs by MTT assay; format: cell-based
DNA [4] = assay: Induction of Escherichia coli pBR322 DNA cleavage at 20 uM irradiated with blue LED light after 30 mins in presence of H2O2 scavenger KI by agarose gel electrophoresis method; format: nucleic-acid assay
DNA [5] = assay: Induction of Escherichia coli pBR322 DNA cleavage at 20 uM irradiated with blue LED light after 30 mins in presence of hydroxyl radical scavenger mannitol by agarose gel electrophoresis method; format: nucleic-acid assay
HeLa [6] = assay: Photocytotoxicity against human HeLa cells assessed as reduction in cell viability at 2 uM preincubated for 1 hr followed blue LED light irradiation for 5 mins and measured after 24 hrs in presence of singlet oxygen scavenger histidine by MTT assay; format: functional, cell-based
MCF7 [7] = assay: Photocytotoxicity against human MCF7 cells assessed as induction of mitochondrial membrane potential depolarization at 10 uM preincubated for 1 hr followed by blue LED light irradiation for 5 mins by TMRE staining based confocal microscopic method; format: functional, cell-based
HeLa [8] = assay: Photocytotoxicity against human HeLa cells assessed as cell membrane blebbing at 10 uM preincubated for 1 hr followed by blue LED light irradiation for 5 mins by differential interference contrast imaging analysis; format: functional, cell-based
MCF7 [9] = assay: Photocytotoxicity against human MCF7 cells assessed as cytoplasmic shrinkage at 10 uM preincubated for 1 hr followed by 488 nanometer laser light irradiation and measured after 8 to 10 mins by confocal microscopic method; format: functional, cell-based
DNA [10] = assay: Binding affinity to Escherichia coli pBR322 DNA assessed as increase in test compound fluorescence irradiated with blue LED light for 5 to 20 mins; format: nucleic-acid assay
HeLa [11] = assay: Photocytotoxicity against human HeLa cells assessed as increase in cleaved PARP protein expression preincubated for 1 hr followed by blue LED light irradiation for 10 mins and measured after 18 hrs by Western blot analysis; format: functional, cell-based
HeLa [12] = assay: Photocytotoxicity against human HeLa cells assessed as plasma membrane blebbing up to 10 uM preincubated for 1 hr followed by blue LED light irradiation for 5 mins and measured after 13 hrs by Hoechst 33258 staining based fluorescence microscopic method; format: functional, cell-based
HeLa [13] = assay: Photocytotoxicity against human HeLa cells assessed as plasma membrane blebbing at 5 uM preincubated for 1 hr followed by blue LED light irradiation for 10 to 30 mins and measured after 2.5 hrs by holotomographic method; format: functional, cell-based
HeLa [14] = assay: Photocytotoxicity against human HeLa cells assessed as cell shrinkage at 20 uM preincubated for 1 hr followed by blue LED light irradiation for 10 mins and measured after 2.5 hrs by holotomographic method; format: functional, cell-based
HeLa [15] = assay: Photocytotoxicity against human HeLa cells assessed as cell rounding at 5 uM preincubated for 1 hr followed by blue LED light irradiation for 10 to 30 mins and measured after 2.5 hrs by holotomographic method; format: functional, cell-based

Cc1cccn2c1cc1c3ccccc3nc(-c3ccco3)c12
Activity (Calf thymus DNA): 57 nm
Activity (A549): Dose-dependent effect
IC50 (A549; A549, light or radiation study): 2370 nM
Activity (MCF7 [1]): Dose-dependent effect
IC50 (MCF7 [1]; MCF7, light or radiation study): 2390 nM
Activity [2]: Non-Toxic
Activity [3]: Non-Toxic
Activity (DNA [4]): inactive
Activity (DNA [5]): Active
Activity (HeLa [6]): inactive
Activity (MCF7 [7]): Active
Activity (HeLa [8]): Active
Activity (MCF7 [9]): Active
Activity (DNA [10]): Active
Activity (HeLa [11]): Dose-dependent effect
Activity (HeLa [12]): Active
Activity (HeLa [13]): Active
Activity (HeLa [14]): Active
Activity (HeLa [15]): Active
